Measurements as given in ChEMBL document CHEMBL1127164, “Dihydropyridine KATP potassium channel openers” (Bioorg Med Chem Lett, 1993).

Columns and labels:
Assay type in all cases: functional
Cavia porcellus [1] = species on record: Cavia porcellus; experiment: The compound was tested for […] activity against guinea pig detrusor (bladder) strip mildly depolarized with 15 mM KCl
Cavia porcellus [2] = species on record: Cavia porcellus; experiment: Tested for percent increase of efflux rate constant of 50 uM of compound using guinea pig detrusor
Cavia porcellus [3] = species on record: Cavia porcellus; experiment: The compound was tested for […] activity against guinea pig vascular tissue (portal vein) strip mildly depolarized with 15 mM KCl
Cavia porcellus [4] = species on record: Cavia porcellus; experiment: The compound was tested for […] activity against guinea pig detrusor (bladder) strip contracted with 80 mM KCl

| IC50 (Cavia porcellus [1]) | IC50 (Cavia porcellus [3]) | IC50 (Cavia porcellus [4]) | SMILES | Increase (Cavia porcellus [2]) |
| --- | --- | --- | --- | --- |
| 420 nM | – | – | N#Cc1ccc(C2C3=C(O)CCCC3=NC3=C2C(=O)CCC3)cc1C(F)(F)F (stereo not drawn) | – |
| 4440 nM | 100 nM | 47800 nM | O=C1CCCC2=C1C(c1cccc([N+](=O)[O-])c1)C1=C(O)CCCC1=N2 (stereo not drawn) | 30.7% |
| 1370 nM | – | – | O=C1CCCC2=C1C(c1ccc(-c3ccccc3)cc1)C1=C(O)CCCC1=N2 (stereo not drawn) | – |
| > 30000 nM | – | – | COC(=O)C1=C(C)NC(C)=C(C(=O)OCCCN2CCC(c3ccccc3)(c3ccccc3)CC2)[C@@H]1c1cccc([N+](=O)[O-])c1 [DEXNIGULDIPINE] | – |
| > 30000 nM | – | – | COC(=O)C1=C(C)NC(C)=C(C(=O)OCCCN2CCC(c3ccccc3)(c3ccccc3)CC2)[C@H]1c1cccc([N+](=O)[O-])c1 [NIGULDIPINE] | – |
| 510 nM | – | – | O=[N+]([O-])c1cccc(C2C3=C(CCCC3)N=C3CCCC(O)=C32)c1 (stereo not drawn) | – |
| 660 nM | – | – | CC1=CC(c2cccc([N+](=O)[O-])c2)C2=C(O)CCCC2=N1 (stereo not drawn) | – |
| 460 nM | – | – | O=C1CCCC2=C1C(c1ccc(F)c(Cl)c1)C1=C(O)CCCC1=N2 (stereo not drawn) | – |
| 160 nM | 9 nM | – | O=C1CCCC2=C1C(c1cc([N+](=O)[O-])cs1)C1=C(O)CCCC1=N2 (stereo not drawn) | – |
